What was measured:
barnyardgrass [1] = assay: Test A pre-/postemergence herbicide test; assay type: in vivo, Echinochloa crus-galli; conditions: for Plant response rating, Barnyardgrass: Postemergence; for Barnyardgrass plant response rating: Preemergence
Summary of the method: (§1)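 Sandy loam soil given preemergence directed spray; plants at 2 to 10 cm, one- to two-leaf stage, sprayed to runoff postemergence, compounds in non-phytotoxic solvent with surfactant. Injury rated visually versus untreated controls after about ten greenhouse days, 0 (no effect) to 100 (complete control); dash means not tested.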

large crabgrass [2] = assay: Test A pre-/postemergence herbicide test; assay type: in vivo, Digitaria sanguinalis; conditions: for Plant response rating, Crabgrass, Large: Postemergence; for Crabgrass, Large plant response rating: Preemergence
Summary of the method: as §1

giant foxtail [3] = assay: Test A pre-/postemergence herbicide test; assay type: in vivo, Setaria faberi; conditions: for Plant response rating, Foxtail, Giant: Postemergence; for Foxtail, Giant plant response rating: Preemergence
Summary of the method: as §1

bermudagrass = assay: Test C pre-/postemergence herbicide test; assay type: in vivo, Cynodon dactylon; conditions: for Bermudagrass plant response rating: 500 g ai/ha
Summary of the method: (§2)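 Preemergence: seeds planted and treated with compound in non-phytotoxic solvent with surfactant; postemergence: plants at 2 to 18 cm (1- to 4-leaf stage) sprayed likewise. Kept in greenhouse 12 to 14 days, then visually rated against controls, 0 (no effect) to 100 (complete control).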

large crabgrass [4] = assay: Test C pre-/postemergence herbicide test; assay type: in vivo, Digitaria sanguinalis; conditions: for Crabgrass, Large plant response rating: 500 g ai/ha
Summary of the method: as §2

giant foxtail [5] = assay: Test C pre-/postemergence herbicide test; assay type: in vivo, Setaria faberi; conditions: for Foxtail, Giant plant response rating: 500 g ai/ha
Summary of the method: as §2

kochia = assay: Test C pre-/postemergence herbicide test; assay type: in vivo, Kochia scoparia; conditions: for Kochia plant response rating: 500 g ai/ha
Summary of the method: as §2

lambsquarters = assay: Test C pre-/postemergence herbicide test; assay type: in vivo, Chenopodium album; conditions: for Lambsquarters plant response rating: 500 g ai/ha
Summary of the method: as §2

soybean = assay: Test C pre-/postemergence herbicide test; assay type: in vivo, Glycine max; conditions: for Soybean plant response rating: 500 g ai/ha
Summary of the method: as §2

[6] = system: common (oilseed) sunflower; assay: Test C pre-/postemergence herbicide test; assay type: in vivo, Helianthus annuus; conditions: for Plant response rating, Sunflower: visual, 12 to 14 days
Summary of the method: as §2

rice = assay: Test C flooded paddy test; assay type: in vivo, Oryza sativa; conditions: for Plant response rating, Rice: visual rating after 12 to 14 days
Summary of the method: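 Injury scored visually against controls on a 0 (no effect) to 100 (complete control) scale, 12 to 14 days after treatment in greenhouse. Flooded paddy plants treated at 2-leaf stage; postemergence plants at 1- to 4-leaf stage, 2 to 18 cm tall.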

ducksalad = assay: Test C flooded paddy test; assay type: in vivo, Heteranthera limosa; conditions: for Plant response rating, Ducksalad: visual rating after 12 to 14 days
barnyardgrass [7] = assay: Test C flooded paddy test; assay type: in vivo, Echinochloa crus-galli; conditions: for Plant response rating, Barnyardgrass: visual rating after 12 to 14 days
Summary of the method: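 Scoring by eye, 12–14 days post-treatment, greenhouse-held plants vs. controls; 0 no effect, 100 complete control. Sprayed at 1–4 leaves (2–18 cm); paddy barnyardgrass at 2 leaves, flooded.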

[8] = 500 g ai/ha, 0 to 100 scale, 0 no effect, 100 complete control
[9] = 2000 g ai/ha, 0 to 100 scale, 0 no effect, 100 complete control
[10] = 500 g ai/ha, visual rating, 0 to 100 scale (0 no effect, 100 complete control)
[11] = 125 g ai/ha, scale 0 (no effect) to 100 (complete control), visual, 12 to 14 days, preemergence
[12] = 250 g ai/ha, scale 0 to 100 (0 no effect, 100 complete control), visual, 12 to 14 days, preemergence
[13] = Preemergence, scale 0 to 100, 0 no effect, 100 complete control
[14] = postemergence, 62 g ai/ha, scale 0 to 100
[15] = Postemergence, 125 g ai/ha, scale 0 to 100, 0 no effect, 100 complete control
[16] = Postemergence, 250 g ai/ha, scale 0 to 100, 0 no effect, 100 complete control
[17] = 62 g ai/ha, scale 0 to 100 (0 no effect, 100 complete control)
[18] = 125 g ai/ha, scale of 0 to 100, 0 is no effect, 100 is complete control
[19] = 250 g ai/ha, scale 0 to 100 (0 no effect, 100 complete control)
[20] = 500 g ai/ha, scale 0 to 100 (0 no effect, 100 complete control)

SMILES: C#CCNC(=O)c1cccc(NC(=O)c2cc(C(C)(C)C)nn2CC)c1 [Compound 47]
- Plant response rating, Barnyardgrass (barnyardgrass [1]; [8]): 90
- Plant response rating, Barnyardgrass (barnyardgrass [1]; [9]): 100
- Barnyardgrass plant response rating (barnyardgrass [1]; [10]): 90
- Barnyardgrass plant response rating (barnyardgrass [1]; [9]): 95
- Plant response rating, Crabgrass, Large (large crabgrass [2]; [8]): 85
- Plant response rating, Crabgrass, Large (large crabgrass [2]; [9]): 100
- Crabgrass, Large plant response rating (large crabgrass [2]; [10]): 55
- Crabgrass, Large plant response rating (large crabgrass [2]; [9]): 90
- Plant response rating, Foxtail, Giant (giant foxtail [3]; [8]): 90
- Plant response rating, Foxtail, Giant (giant foxtail [3]; [9]): 85
- Foxtail, Giant plant response rating (giant foxtail [3]; [10]): 90
- Foxtail, Giant plant response rating (giant foxtail [3]; [9]): 100
- Plant response rating (0 = no effect, 100 = complete control), Bermudagrass (bermudagrass; 62 g ai/ha, preemergence): 90
- Plant response rating, Bermudagrass (bermudagrass; [11]): 100
- Plant response rating, Bermudagrass (bermudagrass; [12]): 100
- Bermudagrass plant response rating (bermudagrass; Postemergence, scale 0 to 100): 60
- Bermudagrass plant response rating (bermudagrass; [13]): 100
- Plant response rating, Bermudagrass (bermudagrass; [14]): 60
- Plant response rating (0 = no effect, 100 = complete control), Crabgrass, Large (large crabgrass [4]; 62 g ai/ha, preemergence): 100
- Plant response rating, Crabgrass, Large (large crabgrass [4]; [11]): 100
- Plant response rating, Crabgrass, Large (large crabgrass [4]; [12]): 100
- Crabgrass, Large plant response rating (large crabgrass [4]; Postemergence, scale 0 to 100): 90
- Crabgrass, Large plant response rating (large crabgrass [4]; [13]): 100
- Plant response rating, Crabgrass, Large (large crabgrass [4]; [14]): 90
- Plant response rating (0 = no effect, 100 = complete control), Foxtail, Giant (giant foxtail [5]; 62 g ai/ha, preemergence): 40
- Plant response rating, Foxtail, Giant (giant foxtail [5]; [11]): 70
- Plant response rating, Foxtail, Giant (giant foxtail [5]; [12]): 80
- Foxtail, Giant plant response rating (giant foxtail [5]; Postemergence, scale 0 to 100): 70
- Plant response rating, Foxtail, Giant (giant foxtail [5]; [15]): 60
- Plant response rating, Foxtail, Giant (giant foxtail [5]; [16]): 60
- Foxtail, Giant plant response rating (giant foxtail [5]; [13]): 90
- Plant response rating, Foxtail, Giant (giant foxtail [5]; [14]): 60
- Plant response rating (0 = no effect, 100 = complete control), Kochia (kochia; 62 g ai/ha, preemergence): 10
- Plant response rating, Kochia (kochia; [11]): 10
- Plant response rating, Kochia (kochia; [12]): 10
- Kochia plant response rating (kochia; Postemergence, scale 0 to 100): 100
- Plant response rating, Kochia (kochia; [15]): 100
- Plant response rating, Kochia (kochia; [16]): 100
- Kochia plant response rating (kochia; [13]): 40
- Plant response rating, Kochia (kochia; [14]): 100
- Plant response rating (0 = no effect, 100 = complete control), Lambsquarters (lambsquarters; 62 g ai/ha, preemergence): 100
- Plant response rating, Lambsquarters (lambsquarters; [11]): 100
- Plant response rating, Lambsquarters (lambsquarters; [12]): 100
- Lambsquarters plant response rating (lambsquarters; Postemergence, scale 0 to 100): 100
- Plant response rating, Lambsquarters (lambsquarters; [16]): 100
- Lambsquarters plant response rating (lambsquarters; [13]): 100
- Plant response rating, Lambsquarters (lambsquarters; [14]): 90
- Plant response rating (0 = no effect, 100 = complete control), Soybean (soybean; 62 g ai/ha, preemergence): 0
- Plant response rating, Soybean (soybean; [11]): 0
- Plant response rating, Soybean (soybean; [12]): 10
- Soybean plant response rating (soybean; Postemergence, scale 0 to 100): 100
- Plant response rating, Soybean (soybean; [16]): 100
- Soybean plant response rating (soybean; [13]): 20
- Plant response rating, Soybean (soybean; [14]): 100
- Plant response rating (0 = no effect, 100 = complete control), Sunflower ([6]; 62 g ai/ha, preemergence): 0
- Plant response rating, Sunflower ([6]; 125 g ai/ha, scale 0 (no effect) to 100 (complete control), preemergence): 0
- Plant response rating, Sunflower ([6]; 250 g ai/ha, scale 0 to 100 (0 no effect, 100 complete control), preemergence): 10
- Sunflower plant response rating ([6]; Preemergence, 500 g ai/ha, scale 0 to 100, 0 no effect, 100 complete control): 40
- Rice plant response rating (rice; [17]): 0
- Rice plant response rating (rice; [18]): 20
- Plant response rating, Rice (rice; [19]): 20
- Plant response rating, Rice (rice; [20]): 50
- Ducksalad plant response rating (ducksalad; [17]): 0
- Ducksalad plant response rating (ducksalad; [18]): 70
- Plant response rating, Ducksalad (ducksalad; [19]): 80
- Plant response rating, Ducksalad (ducksalad; [20]): 80
- Barnyardgrass plant response rating (barnyardgrass [7]; [17]): 0
- Barnyardgrass plant response rating (barnyardgrass [7]; [18]): 0
- Plant response rating, Barnyardgrass (barnyardgrass [7]; [19]): 40
- Plant response rating, Barnyardgrass (barnyardgrass [7]; [20]): 40
